Experiments:
[1] = In vitro activities of purified 6-gingerol compared with the crude ginger extract; conditions: 6-gingerol purified to greater than 95%
From the text: The ginger root is also a source of multiple biologically active gingerol compounds, including 6-gingerol, 8-gingerol, 10-gingerol, 6-paradol, 6-shagoal and cassumunin. 6-gingerol is the most abundant analogue in the extract used here, and represents approximately 32% of the total extract. […] In addition, synthetic curcuminoids and synthetic gingerols are also available. One goal is to have a preparation that is inexpensive to prepare so that individuals at risk for non-healing skin ulcers can utilize it on a long-term basis as a wound preventative.

[2] = system: skin of healthy hairless rats; test: Topical treatment of healthy hairless rats: gross appearance and irritation of the skin; assay type: in vivo, rat; conditions: topical once daily for 14 days, 10% curcumin and 3% ginger extract alone and in combination
Protocol: The botanicals were dissolved in a vehicle (70% ethanol and 30% propylene glycol) at 10.0% for curcumin and 3% for the ginger extract. The concentrations chosen for the two botanicals were based on results from preliminary in vitro studies and in vivo studies with healthy hairless rats.
Based on in vitro experiments in which a wide range of concentrations of both curcumin and the ginger extract were tested, healthy hairless rats were treated topically once daily for 14 days with solutions containing 10% curcumin and 3% ginger extract, alone and in combination. Control rats were treated with vehicle alone. Animals were monitored closely during the treatment period of any visible changes in gross appearance of the skin. […] At the end of the treatment period, skin from the treated site of each animal was obtained. The skin was incubated in organ culture for 3 days.

type I collagen [3] = test: Soluble type I collagen (Western blot) in organ culture fluid of skin from topically treated healthy hairless rats; assay type: in vivo, rat; conditions: 10% curcumin / 3% ginger extract topical, skin in organ culture 3 days, compared to control skin
Protocol: (§1) Wounding was performed under sterile conditions in a laminar flow hood. Wound size was determined daily by measuring the X-axis and Y-axis of the scabbed wound and calculating the area of the remaining scab. At the time of wound closure, animals were sacrificed and duplicate 6 mm skin punches were collected from wounded and healed skin. One biopsy was fixed in 10% buffered formalin and used for histological analysis. The other biopsy was put in organ culture for 3 days. Briefly, the skin was cut into pieces of approximately 2 mm on a side, and four-five such pieces were incubated for 3 days in 0.5 mL of a culture medium consisting of growth factor-free, serum-free, Keratinocyte Basal Medium (KBM) (Lonza, Walkersville, Md.). Before use, the culture medium was supplemented with Ca^2+ to a final concentration of 1.4 mM. At the end of the 3-day incubation period, the organ culture fluid was collected and assayed for soluble type I collagen by western blotting and MMP-2 and -9 gelatin zymography (see below).

MMP-9 [4] = test: MMP-9 (gelatin zymography) in organ culture fluid of skin from topically treated healthy hairless rats; assay type: in vivo, rat; conditions: 10% curcumin / 3% ginger extract topical, skin in organ culture 3 days, compared to control skin
Protocol: as §1
(§2) Analysis of Metalloproteinases: MMP-2 and MMP-9: Gelatin-embedded enzymography (zymography) was used to assess levels of latent and active MMP-2 and MMP-9 in organ culture fluids. SDS-PAGE gels were prepared with the incorporation of gelatin (1 mg/mL) at the time of casting.

MMP-2 [5] = test: MMP-2 (gelatin zymography) in organ culture fluid of skin from topically treated healthy hairless rats; assay type: in vivo, rat; conditions: 10% curcumin / 3% ginger extract topical, skin in organ culture 3 days, compared to control skin
Protocol: as §1, §2

[6] = system: abrasion wounds in skin of corticosteroid-treated hairless rats; test: Abrasion wound healing in corticosteroid-treated hairless rats; assay type: in vivo, rat; conditions: 21 days pretreatment, then 15 days with Temovate; 10% curcumin, 3% ginger extract; compared to Temovate plus vehicle alone
Protocol: Rat Model: Hairless rats were treated for 21 days topically over the back and flank with 500 μL of solutions containing 10% curcumin, 3% ginger extract or the combination of the two. Vehicle alone served as control. During the treatment phase, animals were examined daily for changes in the gross appearance of the skin. After the initial 21-day pretreatment period, rats were treated with Temovate® (clobetasol propionate) cream along with the botanicals for an additional 15 day period. Temovate® (0.05% solution of clobetasol propionate in cream base) was obtained from Glaxo Smith Kline (Philadelphia, Pa.). Temovate® was applied in the morning and botanicals were applied in the evening. At the end of the treatment period, abrasion wounding was performed. […] A pre-measured circular area, approximately 6 cm in diameter, was scrubbed with a stiff-nylon bristle brush lightly wetted with acetone and concomitantly abraded with a piece of course sanding sponge. […]
Wounding was performed under sterile conditions in a laminar flow hood. Wound size was determined daily by measuring the X-axis and Y-axis of the scabbed wound and calculating the area of the remaining scab. […]
Statistical Analysis: Data were analyzed using one-way analysis of variance (ANOVA) followed by the Bonferroni posttest for selected pairs (GraphPad Prism version 4.00 for Windows, GraphPad Software, San Diego, Calif.). […]

type I collagen [7] = test: Soluble type I collagen (Western blot) in organ culture fluid of healed wound skin, Temovate rat model; assay type: in vivo
Protocol: Wounding was performed under sterile conditions in a laminar flow hood. Wound size was determined daily by measuring the X-axis and Y-axis of the scabbed wound and calculating the area of the remaining scab. At the time of wound closure, animals were sacrificed and duplicate 6 mm skin punches were collected from wounded and healed skin. One biopsy was fixed in 10% buffered formalin and used for histological analysis. The other biopsy was put in organ culture for 3 days. […]
Analysis of Type I Collagen: Organ culture fluids were assayed for type I collagen by Western blot analysis. Briefly, organ culture fluids representing an equal quantity of protein were resolved using 8% SDS-PAGE under non-reducing conditions and transferred to nitrocellulose membranes. […] The membranes were then washed with TTBS and bound antibody was detected using the Phototope-HRP western detection kit (Cell Signaling Technologies, Inc., Danvers, Mass.). Images were scanned, digitized, and quantified using NIH image analysis software.
At the time of wound closure, skin from the center of the initial wound (most recently healed skin) was obtained and incubated in organ culture for three days. Organ culture fluids were collected at the end of the incubation period and analyzed for type I collagen and MMP-2/MMP-9. […]

MMP-2 [8] = test: MMP-2 (gelatin zymography) in organ culture fluid of healed wound skin, Temovate rat model; assay type: in vivo; conditions: botanical treatment of Temovate-treated rats
Protocol: as §1, with “At the end of the 3-day incubation period, the organ culture fluid was collected and assayed for soluble type I collagen by western blotting and MMP-2 and -9 gelatin zymography (see below).” left out
(§3) Analysis of Metalloproteinases: MMP-2 and MMP-9: Gelatin-embedded enzymography (zymography) was used to assess levels of latent and active MMP-2 and MMP-9 in organ culture fluids. […] After electrophoresis under non-reducing conditions to separate proteins and overnight incubation to allow for substrate digestion, zones of hydrolysis were identified as “holes” in the stained gels and quantified. Values for latent and active MMPs-2 and -9 bands were obtained following digitization and quantification. […]

MMP-9 [9] = test: MMP-9 (gelatin zymography) in organ culture fluid of healed wound skin, Temovate rat model; assay type: in vivo; conditions: botanical treatment of Temovate-treated rats
Protocol: as §1, with “At the end of the 3-day incubation period, the organ culture fluid was collected and assayed for soluble type I collagen by western blotting and MMP-2 and -9 gelatin zymography (see below).” left out
as §3

MMP-1 [10] = test: MMP-1 levels in human skin organ culture fluid; assay type: cell-based; conditions: increasing amounts of curcumin added to 1 μg per mL ginger extract
Protocol: Human skin was incubated in organ culture under control conditions (Ca^2+-supplemented KBM culture medium) or in the same culture medium with 1 μg per mL ginger extract. Increasing amounts of curcumin were added. […] Human skin was incubated in organ culture under control conditions (Ca^2+-supplemented KBM culture medium) or in the same culture medium with 1 μg per mL ginger extract. Increasing amounts of curcumin were added.

MMP-1 [11] = test: MMP-1 levels in human dermal fibroblast culture fluid; assay type: cell-based; conditions: increasing amounts of curcumin added to 1 μg per mL ginger extract
Protocol: Fibroblasts were incubated under control conditions (Ca^2+-supplemented KBM culture medium) or in the same culture medium supplemented with 1 μg per mL ginger extract. Increasing amounts of curcumin (X-axis) were added. […] Fibroblasts were incubated under control conditions (Ca^2+—supplemented KBM culture medium) or in the same culture medium supplemented with 1 μg per mL ginger extract. Increasing amounts of curcumin were added.

epidermal keratinocytes = test: Epidermal keratinocyte proliferation
From the text: There are several surprising and unexpected ways in which the combination of curcumin and 6-gingerol functions. First, these compounds promote collagen building in combination. On one hand, the ginger compound serves to raise the level of collagen-degrading enzymes, such as matrix metalloproteinases (MMPs), as one of its functions. On the other hand, the curcumin compound suppresses the MMP elevation stimulated by the ginger compound. Second, the combination promotes vascularization. During wound healing there is the need for new vascularization. However, new vessel growth needs to halt at some point and some vessels need to regress at a time when the wounded skin is fully healed. The ginger compound stimulates new vessel formation and the combination of curcumin and ginger extract result in a reduction in the number of capillaries in the skin at the end of the wound healing. This allows the skin to return to quiescence. Third, the combination promotes epidermal proliferation. Skin irritation is intimately associated with epidermal hyperplasia. The ginger compound stimulates epidermal keratinocyte proliferation while the curcumin compound suppresses ginger extract-induced keratinocyte growth. This may be the underlying factor responsible for the absence of irritation by the combination, for example, as compared to irritation observed with retinoid therapy. […]

| SMILES | in vitro activities compared with the crude extract [1] | skin irritation [2] | soluble type I collagen in organ culture fluid (type I collagen [3]) | MMP-9 in organ culture fluid (MMP-9 [4]) | MMP-2 in organ culture fluid (MMP-2 [5]) | wound closure (percent of wound healed) [6] | type I collagen in organ culture fluid (type I collagen [7]; botanicals prior to and during Temovate treatment, compared to rats treated with Temovate and vehicle) | type I collagen in organ culture fluid (type I collagen [7]; treatment along with Temovate, compared to control culture fluids from rats not exposed to Temovate) | MMP-2 level in organ culture fluid (MMP-2 [8]) | MMP-9 level in organ culture fluid (MMP-9 [9]) | ginger extract-induced MMP-1 expression in human skin organ culture fluid (MMP-1 [10]) | ginger extract-induced MMP-1 expression in fibroblast culture fluid (MMP-1 [11]) | ginger extract-induced keratinocyte growth (epidermal keratinocytes) |
| --- | --- | --- | --- | --- | --- | --- | --- | --- | --- | --- | --- | --- | --- |
| CCCCCC(O)CC(=O)CCc1ccc(OC)c(O)c1 (stereo not shown) [6-gingerol, 5-hydroxy-1-(3-hydroxy-4-methoxyphenyl)decan-3-one] | same in vitro activities as the crude extract itself |  |  |  |  |  |  |  |  |  |  |  |  |
| COc1cc(/C=C/C(=O)CC(=O)/C=C/c2ccc(O)c(OC)c2)ccc1O [curcumin, (1E,6E)-1,7-bis(4-hydroxy-3-methoxyphenyl)hepta-1,6-diene-3,5-dione] |  | No irritation | increased | decreased | decrease | improved | elevated | higher | reduced | reduced | inhibited | inhibited | suppresses |

Reference: patent publication US20100105644A1, “BOTANICAL COMPOSITION FOR ENHANCED SKIN REPAIR AND USES THEREOF” (The Regents of the University of Michigan, priority 2008, published 2010)
